{"source": "PubChem BioAssay (NCI)", "note": "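Following 48 hours of exposure in 96-well plates, responses at five concentrations were used to interpolate endpoints linearly. GI50 = concentration required for 50% inhibition of growth. TGI denotes the concentration required for complete inhibition of growth.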"}
{"system": "MDA-MB-468 breast", "assay": "NCI-60 cell line screen, 48 h", "units": {"GI50": "nM", "TGI": "nM"}}
{"smiles": "O=C(CCN1CCCC1)Nc1ccc2c(NCc3ccccc3)c3ccccc3nc2c1", "GI50": 274, "TGI": 1060}
{"smiles": "O=[N+]([O-])c1cc[n+]([O-])c2ccccc12", "GI50": 135, "TGI": 324}
{"smiles": "C=C(C)[C@@H]1CC[C@]2(COP(=O)(OCC)OCC)CC[C@]3(C)[C@H](CC[C@@H]4[C@@]5(C)CCCNC(C)(C)[C@@H]5CC[C@]43C)[C@@H]12", "GI50": 1390, "TGI": 2910}
{"smiles": "CN(C)c1ccc(Nc2c3ccccc3nc3ccccc23)cc1", "GI50": 632, "TGI": 2110}
{"smiles": "CC(C)(C)c1ccc(C(O)CCCN2CCC(C(O)(c3ccccc3)c3ccccc3)CC2)cc1", "note": "(configuration not stated)", "GI50": 1150, "TGI": 2450}
{"smiles": "COC(=O)c1c2c(c(C)[n+]([O-])c1C)C(=O)C=C(NCc1ccccc1)C2=O", "GI50": 266, "TGI": 1140}
{"smiles": "COc1ccc(-c2cc(=O)n(-c3nc4ccccc4[nH]3)[nH]2)cc1OC", "GI50": 4300, "TGI": 44700}
{"smiles": "O=C(NCCN1CCOCC1)OCc1nc2nc(Cl)nc(N3CCOCC3)c2[nH]1", "GI50": 375, "TGI": 3790}
{"smiles": "COc1cccc2c1C=CC1(O2)Oc2cccc(OC)c2C=C1C", "note": "(configuration not stated)", "GI50": 402, "TGI": "> 100000"}
{"smiles": "Nc1ccn(C2CC(F)C(CO)O2)c(=O)n1", "note": "(configuration not stated)", "GI50": "> 100000", "TGI": "> 100000"}
{"smiles": "COc1ccc(/C=C(/c2ccccc2)[N+](=O)[O-])c(OC)c1", "GI50": 1510, "TGI": 3400}
{"smiles": "NC(=N\\N=C/c1ccc(O)cc1)/C(N)=N\\N=C/c1ccc(O)cc1", "GI50": "> 100000", "TGI": "> 100000"}
{"smiles": "COc1ccc(C(=O)Cn2c(C(=O)c3ccccc3)nc3ccccc32)cc1", "GI50": 817, "TGI": 5770}
{"smiles": "CCn1c(=O)c2nc(SC)sc2n(-c2ccc(C)cc2)c1=O", "GI50": 62000, "TGI": "> 100000"}
{"smiles": "CCOC(=O)NC1CCc2cc(OC)c(OC)c(OC)c2-c2ccc(OC)c(=O)cc21", "note": "(configuration not stated)", "GI50": 548, "TGI": "> 100000"}
{"smiles": "CC1=CC2C(C(O)CC3(C)C2CC(C)C32OCOC23COCO3)C2(C)C/C(=C/O)C(=O)C=C12", "note": "(configuration not stated)", "GI50": 1790, "TGI": 3470}
{"smiles": "CN(C)C(=O)Nc1nc2cc(Cl)c(Cl)cc2[nH]1", "GI50": 537, "TGI": "> 91000"}
{"smiles": "CCCCNNC(=O)c1ccc(Br)cc1", "GI50": 1710, "TGI": "> 50000"}
{"smiles": "CCC(=O)N1C/C(=C/c2ccc(Cl)cc2)C(=O)/C(=C/c2ccc(Cl)cc2)C1", "GI50": 704, "TGI": 2080}
{"smiles": "O=c1c2cc(C(F)(F)F)ccc2sc2c(NCCCNCCO)nc3ccccc3c12", "GI50": 1570, "TGI": 3130}
{"smiles": "Cc1cn2c(/C=C3/C(=O)Nc4c3ccc3ccccc43)c(C(F)(F)F)nc2s1", "GI50": 1460, "TGI": "> 100000"}
{"smiles": "Cc1ccc(S(=O)(=O)Oc2ccc3c4c(c(=O)oc3c2)CCCCCC4)cc1", "GI50": 2040, "TGI": "> 100000"}
{"smiles": "Cc1ccc(/C=C(\\C#N)c2cc3ccccc3n2C)cc1", "GI50": 406, "TGI": "> 100000"}
{"smiles": "COc1c(C(C)=O)c(OCCCCOc2c(C(C)=O)c(OC)c3ccoc3c2OC)c(OC)c2occc12", "GI50": 2310, "TGI": "> 100000"}
{"smiles": "COc1ccc2c(c1)nc(NNC(=O)c1cnccn1)c1cccn12", "GI50": 227, "TGI": 1660}
{"smiles": "C=C(C)[C@@H]1CCC=C2CC[C@]3(C)[C@H](CC[C@@H]4[C@@]5(C)CCCNC(C)(C)[C@@H]5CC[C@]43C)[C@H]21", "GI50": 1610, "TGI": 3100}
{"smiles": "O=C(O)C[C@H](O)C[C@H](O)/C=C/c1c(C2CC2)nc2ccccc2c1-c1ccc(F)cc1", "GI50": 2370, "TGI": 12100}
{"smiles": "CCOc1ccc2c(-c3ccnc(Nc4cc(OC)cc(C(F)(F)F)c4)n3)cnn2n1", "GI50": 836, "TGI": "> 20500"}
{"smiles": "C/C(=C\\c1ccn(-c2ccccc2N)n1)[C@@H]1C[C@@H]2O[C@]2(C)CCC[C@H](C)[C@H](O)[C@@H](C)C(=O)C(C)(C)[C@@H](O)CC(=O)O1", "GI50": 35.7, "TGI": 732}
{"smiles": "COC(=O)c1cc(-c2ccccc2)[nH]c1N/N=C/c1c(Cl)cccc1Cl", "GI50": 185}
{"smiles": "O=C1CCc2c(sc3[nH]c(=S)n(-c4cc(C(F)(F)F)cc(C(F)(F)F)c4)c(=O)c23)C1", "GI50": 248, "TGI": 768}
{"smiles": "Cc1cc2ncc(-c3cc4ccccc4c(N4CCN(C)CC4)n3)nc2cc1C", "GI50": 2120, "TGI": 5110}
{"smiles": "N#Cc1nc(-c2ccc(F)cc2)oc1S(=O)(=O)N1CCCCC1", "GI50": 1640, "TGI": 3300}
{"smiles": "O=C(Nc1ccc(F)c(F)c1)c1cc(-c2ccc(F)cc2F)ccc1O", "GI50": 1120, "TGI": 4350}
{"smiles": "C=CC(=O)N1CCC(c2ccc(C(N)=O)c(-c3ccc(Oc4ccccc4)cc3)n2)CC1", "GI50": 5760, "TGI": 49500}
{"smiles": "Fc1ccc(-c2ncn(C3CCNCC3)c2-c2ccnc(Oc3ccc4c(c3)OCO4)n2)cc1", "GI50": 3190, "TGI": 8020}
{"smiles": "C=C1C(=O)O[C@H]2[C@H]1CC/C(COC(=O)CCCCCC(=O)OC/C1=C/CC[C@@]3(C)O[C@H]3[C@H]3OC(=O)C(=C)[C@@H]3CC1)=C\\CC[C@@]1(C)O[C@@H]21", "GI50": 1840, "TGI": 7100}
{"smiles": "COc1ccc([C@H](CC(=O)O)N2CCN(CCCc3ccc4c(n3)NCCC4)C2=O)cn1", "GI50": 111, "TGI": 479}
{"smiles": "Cc1ccc2nc3ccccc3c(NCc3ccc(Cl)cc3)c2c1", "GI50": 1630, "TGI": 6380}
{"smiles": "Cc1ccc(/C=C/c2c(C(=O)/C=C/c3ccccc3)c(C)nc3ccccc23)cc1", "GI50": 1800, "TGI": 3470}
{"smiles": "CNC(=O)NCC1OC(n2cnc3c(NC(=O)Nc4ccccc4)ncnc32)C(O[Si](C)(C)C(C)(C)C)C1O[Si](C)(C)C(C)(C)C", "note": "(configuration not stated)", "GI50": 3350, "TGI": 13900}
{"smiles": "c1ccc(-c2nn3c(c2-c2ccnc4cc(OCCN5CCOCC5)ccc24)CCC3)nc1", "GI50": 30900, "TGI": "> 100000"}
{"smiles": "Oc1c(C(Nc2ccccc2Br)c2ccccc2)ccc2cccnc12", "note": "(configuration not stated)", "GI50": 1520, "TGI": 6120}
{"smiles": "CCCCCCCCCCCC1=NC(C)(C)CN1C(C)(C)CO", "GI50": 1820, "TGI": 3670}
